Laboratory results as given in patent US20230391729A1, “SUCCINATE SALTS OF N-(3-(4-(3-(DIISOBUTYLAMINO)PROPYL)PIPERAZIN-1-YL)PROPYL)-1H-BENZO[D]IMIDAZOL-2-AMINE, PREPARATION THEREOF AND USE OF THE SAME” (ALZPROTECT, priority 2020, published 2023).

System: α-syn aggregation
Test: α-synuclein aggregation in TH(+) neurons after rotenone injury
Assay type: cell-based, rat
Details: rotenone 10 nM 24 h
Description: Rat dopaminergic neurons were cultured as described by Visanji et al. in FASEB J. 2008, 22(7): 2488-2497 and Callizot et al., in Plos One 2019: https://doi.org/10.1371/journal.pone.0215277. Briefly, pregnant female rat (Wistar) of 15 days of gestation were killed using a deep anesthesia with CO2 chamber and a cervical dislocation. The midbrains obtained from 15-day-old rat embryos (Janvier, France) were dissected under a microscope. The embryonic midbrains were removed and placed in ice-cold medium of Leibovitz (L15) containing 2% of Penicillin-Streptomycin (PS) and 1% of BSA. The ventral portion of the mesencephalic flexure, a region of the developing brain rich in dopaminergic neurons, were used for the cell preparations. The midbrains were dissociated by trypsinization for 20 min at 37° C. (solution at a final concentration of 0.05% trypsin and 0.02% EDTA). The reaction was stopped by the addition of DMEM containing DNAase I grade II (0.5 mg/mL) and 10% of FCS. […] Viable cells were counted in a Neubauer cytometer using the trypan blue exclusion test. […]
The following read-outs were investigated: • neuron survival: total number of TH neurons (TH staining), • neurite network: total length of neurite network of TH positive neurons (in μm) • α-syn aggregation (area of overlapping between TH and α-syn staining in μm^2) […]

“N-(3-(4-(3-(diisobutylamino)propyl)piperazin-1-yl)propyl)-1H-benzo[d]imidazol-2-amine sesqui-succinate salt [sesqui-succinate salt Form 1]” was tested, and the α-syn aggregation (100 nM co-administered) was “prevented” and the α-syn aggregation (pre-incubated or applied directly with rotenone, 10 to 100 nM) was “significantly reduced”.
